In paper PMC4183567, “Cysteine Transport through Excitatory Amino Acid Transporter 3 (EAAT3)” (PLoS ONE, 2014):
Where two headings read alike, the source gives them in different places.

Legend:
EAAT3 [1] = molecular target: T1, EAAT3 (Homo sapiens, UniProt P43005); experiment: mEGFPpH fluorescence imaging of intracellular pH in HEK293 cells co-expressing EAAT3; details: EAAT3 HEK293 cells
T1 sequence (P43005 1-524): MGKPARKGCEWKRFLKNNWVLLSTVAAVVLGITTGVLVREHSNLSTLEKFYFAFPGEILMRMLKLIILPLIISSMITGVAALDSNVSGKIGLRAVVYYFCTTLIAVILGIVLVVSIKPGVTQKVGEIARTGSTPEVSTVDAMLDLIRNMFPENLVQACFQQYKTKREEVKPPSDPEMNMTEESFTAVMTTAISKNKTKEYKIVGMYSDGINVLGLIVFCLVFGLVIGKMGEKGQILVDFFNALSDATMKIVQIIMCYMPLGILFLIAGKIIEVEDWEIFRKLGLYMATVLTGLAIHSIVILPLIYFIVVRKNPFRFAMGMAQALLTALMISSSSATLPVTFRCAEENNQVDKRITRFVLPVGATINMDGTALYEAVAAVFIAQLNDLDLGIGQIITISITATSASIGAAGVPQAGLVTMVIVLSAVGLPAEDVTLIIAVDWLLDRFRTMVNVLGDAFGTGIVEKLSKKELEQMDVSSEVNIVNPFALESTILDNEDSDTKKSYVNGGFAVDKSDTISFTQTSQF
From the text: (§7) Cells expressing mEGFPpH were imaged with a Zeiss Axiovert 135T inverted microscope with a 40X NeoFluar oil immersion objective (NA1.3). A Lambda DG4 (Sutter Instrument Co.) equipped with a xenon arc lamp was used for high-speed excitation wavelength switching. Images were collected using either a Quantix (Roper Scientific, Tucson, AZ) or an Orca ER (Hammamatsu Co.) cooled CCD. For pH imaging experiments, the fluorescence filters (Omega Optical) were: excitation 405±20 and 485±7.5; dichroic 400-480-585DLRP; emission 510±11.5. Software control and data acquisition were accomplished using Axon Imaging Workbench (INDEC Biosystems) or OpenLab acquisition software (Improvision, Perkin Elmer). Cells were incubated at room temperature with continuous perfusion using standard buffer containing (in mM): 146 NaCl, 5 KCl, 5 HEPES, 2.5 CaCl2 and 1.2 MgCl2 at pH 7.35 with additions (substrates etc.) as indicated in figure legends. Acquisition exposure times were identical for both 405 nm and 485 nm excitation wavelengths adjusted so that the 510 emission was not saturated for either excitation wavelength. Prior to perfusion with buffers containing substrates, cells were perfused in standard buffer to achieve a stable base line. Fluorescence was reported as the ratio of fluorescence at 510 nm by excitation with 485 and 405 nm wavelengths (F485/F405).

EAAT3 [2] = molecular target: T1, EAAT3; experiment: Glutamate inhibition of [35S]-L-cysteine uptake in Xenopus oocytes expressing EAAT3; type: cell-based; parameters: expressed in transfected cells; host or cells: HEK293
Protocol: (§1) mRNA from linearized pOTV-EAAT1, pOTV-EAAT2 and pOTV-EAAT3 was generated as previously described and resuspended in RNAase-free water and used for oocytes injections. Xenopus oocytes where injected with 50 nl of mRNA and incubated at 18°C in 96 mM NaCl, 2 mM KCl, 1.8 mM CaCl2, 1.0 mM MgCl2, 5 mM HEPES, pH 7.4 (ND96) supplemented with 2.5 mM Sodium Pyruvate and Gentamicyn for 2 to 3 days prior to using in electrophysiological recordings and radio-labeled transport experiments.
Cysteine transport was measured for 10 min in Xenopus oocytes with serial dilution of a mixture of 10 mM cysteine and 20 nM [^35S]-L-cysteine in ND96. Transport was terminated by three washes of ND96, after which accumulated radiolabel was quantitated by liquid scintillation counting. […] Transport was terminated by three washes in ND96 followed by liquid scintillation counting.

EAAT2 [3] = molecular target: T2, EAAT2 (Homo sapiens, UniProt P43004); experiment: mEGFPpH fluorescence imaging of intracellular pH in HEK293 cells co-expressing EAAT2; type: cell-based; parameters: expressed in transfected cells; host or cells: HEK293; details: for mEGFPpH fluorescence change: 1 mM perfusion
From the text: as §7

EAAT3 and ASCT1 [4] = molecular target: T3, EAAT3 and ASCT1 (Homo sapiens, UniProt P43005); experiment: Release of preloaded [35S]-L-cysteine from Xenopus oocytes co-expressing EAAT3 and ASCT1; type: cell-based; details: 100 µM extracellular substrate, 10 min
T3 construct: expressed in transfected cells; host or cells: Xenopus oocytes
T3 sequence (P43005 1-524): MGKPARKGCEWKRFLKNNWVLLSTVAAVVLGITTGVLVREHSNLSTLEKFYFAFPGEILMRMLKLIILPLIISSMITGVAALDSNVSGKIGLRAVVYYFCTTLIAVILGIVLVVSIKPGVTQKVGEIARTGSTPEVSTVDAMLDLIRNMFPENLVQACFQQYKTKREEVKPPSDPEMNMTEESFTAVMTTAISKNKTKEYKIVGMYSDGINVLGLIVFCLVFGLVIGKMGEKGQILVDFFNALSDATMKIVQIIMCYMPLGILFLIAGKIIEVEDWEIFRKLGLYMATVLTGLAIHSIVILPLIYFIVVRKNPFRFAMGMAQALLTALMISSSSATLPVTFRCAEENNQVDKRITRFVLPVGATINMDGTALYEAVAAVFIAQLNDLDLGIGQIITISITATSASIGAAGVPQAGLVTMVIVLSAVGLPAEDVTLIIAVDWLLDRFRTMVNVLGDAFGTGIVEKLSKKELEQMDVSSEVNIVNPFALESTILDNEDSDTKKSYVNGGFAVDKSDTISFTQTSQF
Protocol: mRNA from linearized pOTV-EAAT1, pOTV-EAAT2 and pOTV-EAAT3 was generated as previously described and resuspended in RNAase-free water and used for oocytes injections.
(§2) Oocytes were washed 3 times in ND96 buffer followed by incubation for 10 min with non-radiolabeled substrates as indicated. The supernatant was removed and collected for scintillation counting, while the oocytes were lysed in 1% sodium dodecylsulfate (SDS). The oocytes lysate and supernatant were counted separately by liquid scintillation counting to determine both retained and released radioactivity respectively. Percent of released radioactivity was determined as a function of the released/(retained + released).

EAAT3 and ASCT1 [5] = experiment: Substrate-gated NO3 currents in Xenopus oocytes co-expressing EAAT3 and ASCT1; type: cell-based, human; details: 1 mM substrate, oocytes co-expressing EAAT3 and ASCT1, n = 4
Protocol: as §1
(§3) Oocytes were held at −60 mV, and currents elicited by 200 ms voltage steps between −120 mV and +60 mV were filtered at 2 kHz (−3dB) and digitalized with a sampling rate of 10 kHz using a Digidata AD/DA converter (Molecular Devices, Sunnyvale, CA, USA). Borosilicate pipets where filled with 3 M KCl and typical resistances where 0.2 to 1 MΩ. Transport currents were determined at −60 mV in a gluconate-based ND96 solution. In order to dialyze internal chloride, oocytes were incubated 12 to 24 hours in the gluconate solution. Anion currents were determined at positive potentials (+60 mV) after exchanging the external solution to NO3-based ND96 (replacement of 96 mM NaCl with 96 mM NaNO3) solution in the absence or in the presence of 1 mM external substrates. […] Data were analyzed with a combination of pClamp 9.2 (Axon Instrument) and Sigma Plot (Jandel Scientific, San Rafael, CA, USA). […]

EAAT3 and ASCT1 [6] = molecular target: T3, EAAT3 and ASCT1; experiment: Release of preloaded [3H]-L-glutamate from Xenopus oocytes co-expressing EAAT3 and ASCT1; type: cell-based; details: 100 µM extracellular substrate
Protocol: as §1, §2

EAAT3 [7] = molecular target: T1, EAAT3; experiment: Substrate-gated anion (NO3) currents in Xenopus oocytes expressing EAAT3; type: cell-based; details: 1 mM substrate; for anion current amplitude at +60 mV: NO3-based solution, Figure 2C, n = 4
Protocol: as §1
(§4) Oocytes were held at −60 mV, and currents elicited by 200 ms voltage steps between −120 mV and +60 mV were filtered at 2 kHz (−3dB) and digitalized with a sampling rate of 10 kHz using a Digidata AD/DA converter (Molecular Devices, Sunnyvale, CA, USA). Borosilicate pipets where filled with 3 M KCl and typical resistances where 0.2 to 1 MΩ. Transport currents were determined at −60 mV in a gluconate-based ND96 solution. In order to dialyze internal chloride, oocytes were incubated 12 to 24 hours in the gluconate solution. Anion currents were determined at positive potentials (+60 mV) after exchanging the external solution to NO3-based ND96 (replacement of 96 mM NaCl with 96 mM NaNO3) solution in the absence or in the presence of 1 mM external substrates. In experiments using cysteine as a substrate, all solutions contained 2 mM dithiothreitol (DTT). Data were analyzed with a combination of pClamp 9.2 (Axon Instrument) and Sigma Plot (Jandel Scientific, San Rafael, CA, USA). Whole cell current amplitudes are shown without any subtraction protocol. Current-voltage relationships were constructed by plotting the isochronal current 6 ms after the voltage step versus the membrane potential. All data are given as the mean ± standard deviation of the mean (SDM). For evaluation the statistical relevance, the Student’s t-Test was used with an α of 0.05.

EAATs = details: very low affinity; cited from earlier work
EAAT3 [8] = molecular target: T1, EAAT3; experiment: Substrate inhibition of [3H]-L-glutamate uptake in HEK293 cells expressing EAAT3; type: cell-based; parameters: expressed in transfected cells; host or cells: HEK293
Protocol: (§5) For radiolabeled transport experiments, 2×10^6 cells were transfected in 1 mL of Opti-Mem (Life Technologies) using 6 µL of Lipofectamine 2000 (Invitrogen) with 1 µg pCMV-EAAT2 or pCMV-EAAT3 DNA and plated at 5×10^4 cells/well in 24 well Costar (Corning) plates with 0.5 mL DMEM culture media prepared as above. Following transfection and plating, cells were cultured 2–3 days prior to [^3H]-L-Glutamate transport experiments.
(§6) Transport was allowed to proceed for 10 min and was terminated by 3 washes with cold perfusion buffer. Cells were lysed with 1% SDS/0.1N NaOH and radioactivity determined by scintillation counting. Data analysis was performed using Graphpad Prism (Graphpad Software Inc.).

[9] = amino acid side chain; cited from earlier work
EAAT2 [10] = molecular target: T2, EAAT2; experiment: Substrate inhibition of [3H]-L-glutamate uptake in HEK293 cells expressing EAAT2; type: cell-based; parameters: expressed in transfected cells; host or cells: HEK293
Protocol: as §5, §6

EAAT1 = molecular target: T4, EAAT1 (Homo sapiens, UniProt P43003); experiment: Two-electrode voltage clamp transport currents in Xenopus oocytes expressing EAAT1; type: cell-based; details: 1 mM substrate vs 1 mM glutamate, -60 mV
T4 construct: expressed in transfected cells; host or cells: Xenopus oocytes injected with mRNA
Protocol: as §1, §3

EAAT3 [11] = molecular target: T1, EAAT3; experiment: Two-electrode voltage clamp transport currents in Xenopus oocytes expressing EAAT3; type: cell-based
Protocol: as §1, §4

[12] = Protonation state calculated with the Henderson-Hasselbalch equation; type: physicochemical; details: physiological pH
EAAT2 [13] = molecular target: T2, EAAT2; experiment: Two-electrode voltage clamp transport currents in Xenopus oocytes expressing EAAT2; type: cell-based; details: 1 mM substrate vs 1 mM glutamate, -60 mV
Protocol: as §1, §3

[14] = substrate: N[C@@H](C[SeH])C(=O)O; experiment: Two-electrode voltage clamp transport currents in Xenopus oocytes expressing EAAT3; type: cell-based, human; details: other: -60 mV, normalized transport current vs concentration, n = 6; pH 7.4; 18.0 °C
Protocol: as §1, §3

[15] = substrate: N[C@@H](CCC(=O)O)C(=O)O; experiment: cells, lysate or membranes; details: other: slope normalized to 1 mM glutamate, 0.5 µM to 2 mM glutamate; pH 7.35; 37.0 °C
[16] = substrate: N[C@@H](CCC(=O)O)C(=O)O; experiment: cells, lysate or membranes; type: cell-based, human; details: other: similarly transfected HEK293 cells
Protocol: as §5

T2 sequence (P43004 whole entry, the tested form may be a part): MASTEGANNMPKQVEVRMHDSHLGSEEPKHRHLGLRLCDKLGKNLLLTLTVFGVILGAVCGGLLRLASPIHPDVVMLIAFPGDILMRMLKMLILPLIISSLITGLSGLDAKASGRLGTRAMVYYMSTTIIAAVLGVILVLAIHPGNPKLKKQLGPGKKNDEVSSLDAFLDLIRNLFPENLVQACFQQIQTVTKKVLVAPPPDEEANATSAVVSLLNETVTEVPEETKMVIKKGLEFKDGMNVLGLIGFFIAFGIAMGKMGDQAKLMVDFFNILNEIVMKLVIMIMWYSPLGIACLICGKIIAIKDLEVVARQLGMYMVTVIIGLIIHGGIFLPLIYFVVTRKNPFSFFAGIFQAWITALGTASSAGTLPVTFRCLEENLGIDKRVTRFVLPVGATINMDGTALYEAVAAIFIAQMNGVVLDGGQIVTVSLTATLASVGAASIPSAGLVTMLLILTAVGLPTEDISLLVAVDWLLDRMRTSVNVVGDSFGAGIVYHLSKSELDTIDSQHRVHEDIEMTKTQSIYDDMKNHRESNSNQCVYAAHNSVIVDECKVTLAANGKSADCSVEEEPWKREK
T4 sequence (P43003 whole entry): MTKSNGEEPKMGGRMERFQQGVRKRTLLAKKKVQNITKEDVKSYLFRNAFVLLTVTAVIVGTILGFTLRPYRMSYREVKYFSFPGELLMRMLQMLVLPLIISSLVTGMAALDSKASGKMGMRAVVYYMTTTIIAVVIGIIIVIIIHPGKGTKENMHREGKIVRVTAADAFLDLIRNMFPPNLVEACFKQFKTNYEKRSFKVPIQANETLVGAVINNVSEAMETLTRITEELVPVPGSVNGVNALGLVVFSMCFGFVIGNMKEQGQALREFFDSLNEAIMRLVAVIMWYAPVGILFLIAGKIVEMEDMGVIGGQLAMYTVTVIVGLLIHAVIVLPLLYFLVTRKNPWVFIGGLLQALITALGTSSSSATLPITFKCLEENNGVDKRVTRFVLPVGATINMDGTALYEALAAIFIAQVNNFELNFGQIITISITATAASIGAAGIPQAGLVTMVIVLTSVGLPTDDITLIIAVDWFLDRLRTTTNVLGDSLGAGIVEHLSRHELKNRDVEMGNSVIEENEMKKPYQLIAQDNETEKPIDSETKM

N[C@@H](CCC(=O)O)C(=O)O [glutamate, L-glutamate]
mEGFPpH fluorescence change (EAAT3 [1]; 0.5 µM perfusion): no observable fluorescence changes from baseline | mEGFPpH fluorescence change (EAAT3 [1]; 1 mM perfusion): fluorescence decrease | inhibition at 100 µM (EAAT3 [2]; pH 6.9, read-out: inhibition of cysteine transport): 40% | inhibition at 100 µM (EAAT3 [2]; pH 6.9, read-out: inhibition of cysteine uptake): ~75% | mEGFPpH fluorescence change (EAAT2 [3]): significant quench of mEGFPpH fluorescence | release of preloaded [35S]-L-cysteine (EAAT3 and ASCT1 [4]): less than 2% | macroscopic anion current amplitude at +60 mV (EAAT3 and ASCT1 [5]): 1.1±0.1 µA | release of loaded [3H]-L-glutamate (EAAT3 and ASCT1 [6]): 5% | anion current amplitude at +60 mV (EAAT3 [7]): 1.78±0.4 µA | average anion current amplitude at +60 mV (EAAT3 [7]; NaNO3, oocytes expressing EAAT3 alone, Figure 7C, n = 6): 2.2±0.12 µA

C[C@H](N)C(=O)O [alanine]
affinity for the transporters (EAATs): > 1 mM

N[C@@H](C[SeH])C(=O)O [selenocysteine, L-selenocysteine]
IC50 (EAAT3 [8]): 71 ± 10 µM | fold lower IC50 than for cysteine (EAAT3 [8]; EAAT3 HEK293 cells): approximately 10 fold | inhibition at 1000 µM (EAAT3 [8]; HEK293, read-out: inhibition of glutamate uptake): > 90% | mEGFPpH fluorescence change (EAAT3 [1]; 1 mM perfusion): fluorescence decrease | slope of fluorescence change normalized to that of 100 µM glutamate (EAAT3 [1]; selenocysteine at 100 µM, cysteine change opposite in direction): 0.86±0.03 | side chain pKa [9]: 5.3 | mEGFPpH fluorescence change (EAAT2 [3]): fluorescence decrease similar in magnitude to that observed for glutamate | slope of fluorescence change normalized to that of 100 µM glutamate (EAAT2 [3]; selenocysteine at 100 µM): 0.85±0.02 | IC50 (EAAT2 [10]): 46 ± 12 µM | inhibition at 1000 µM (EAAT2 [10]; HEK293, read-out: inhibition of glutamate transport): ~90% | transport current amplitude relative to glutamate transport current (EAAT1): 89.5±6.7% | inward transport current (EAAT3 [11]; 1 µM selenocysteine perfusion, Figure 2A): 20 nA | transport current amplitude relative to glutamate transport current (EAAT3 [11]; 1 mM substrate vs 1 mM glutamate, EAAT3 oocytes, -60 mV): 95.6±14% | anion current amplitude at +60 mV (EAAT3 [7]): 1.72±0.4 µA | fraction in deprotonated state [12]: > 99% | transport current amplitude relative to glutamate transport current (EAAT2 [13]): 72.1±17%

B1: EAAT3 (Homo sapiens) (protein)
chain: MGKPARKGCEWKRFLKNNWVLLSTVAAVVLGITTGVLVREHSNLSTLEKFYFAFPGEILMRMLKLIILPLIISSMITGVAALDSNVSGKIGLRAVVYYFCTTLIAVILGIVLVVSIKPGVTQKVGEIARTGSTPEVSTVDAMLDLIRNMFPENLVQACFQQYKTKREEVKPPSDPEMNMTEESFTAVMTTAISKNKTKEYKIVGMYSDGINVLGLIVFCLVFGLVIGKMGEKGQILVDFFNALSDATMKIVQIIMCYMPLGILFLIAGKIIEVEDWEIFRKLGLYMATVLTGLAIHSIVILPLIYFIVVRKNPFRFAMGMAQALLTALMISSSSATLPVTFRCAEENNQVDKRITRFVLPVGATINMDGTALYEAVAAVFIAQLNDLDLGIGQIITISITATSASIGAAGVPQAGLVTMVIVLSAVGLPAEDVTLIIAVDWLLDRFRTMVNVLGDAFGTGIVEKLSKKELEQMDVSSEVNIVNPFALESTILDNEDSDTKKSYVNGGFAVDKSDTISFTQTSQF
notes: expressed in transfected cells; host or cells: HEK293
Km [14]: 7.14 ± 0.3 µM | Km [15]: 30 µM | Km [16]: 70 µM
